Source: PMC6207370 (Xenobiotica; the fate of foreign compounds in biological …, 2017)
Where two headings read alike, the source gives them in different places. Marks after values point to notes of the source that are not given here.

Key:
[1] = in vitro; conditions: both, human
[2] = i.v., ref Dolan ME, Roy SK, Fasanmade AA, et al. (1998); cited from earlier work
[3] = type: in vitro ADME
[4] = both, human, pH 7.4
[5] = male, CD-1, mouse, 1 μM, pH 7.4
[6] = male, Sprague-Dawley, rat, 1 μM, pH 7.4
[7] = in vitro; conditions: male, Sprague-Dawley, rat, s9, pH 7.4, CLint +NADPH
[8] = in vitro; conditions: male, Hartley, guinea pig
[9] = male, Hartley, guinea pig, pH 7.4
[10] = male, rhesus monkey, pH 7.4
[11] = Allometric scaling; parameters: species or system human; conditions: SSS from minipig
[12] = in vitro; conditions: male, CD-1, mouse, s9, pH 7.4, CLint +NADPH
[13] = in vitro; conditions: male, cynomolgus monkey
[14] = male, cynomolgus monkey, pH 7.4
[15] = in vitro; conditions: male, rhesus monkey
[16] = in vitro; conditions: male, Gottingen, minipig, s9, pH 7.4, CLint +NADPH
[17] = male, Gottingen, minipig, 1 μM, pH 7.4

SMILES: Nc1nc(OCc2ccccc2)c2[nH]cnc2n1 [O^6-benzylguanine]
- CLint scaled at 1 μM ([1]; s9, pH 7.4, CLint +NADPH): 17.8 ± 3.05 mL/min/kg
- CLint scaled at 1 μM ([1]; s9, pH 7.4, CLint +NADPH +Hyd): 5.37 ± 1.16 mL/min/kg
- CLint scaled at 1 μM ([1]; s9, pH 7.4, CLint −NADPH): 14.8 ± 1.98 mL/min/kg
- Human Plasma Clearance [2]: 14.5^# mL/min/kg
- Fm,AO, across species ([3]; all species except rat, mouse, and minipig): ≥ 0.70
- E (estimated hepatic extraction ratio), across species ([3]; human, cynomolgus, and guinea pig hepatic S9): approximately 0.5
- E (estimated hepatic extraction ratio), across species ([3]; rat, mouse, minipig hepatic S9): approximately 0.1
- CLHEP (hepatic clearance) ([4]; 1 μM): 9.62 ± 0.593 mL/min/kg
- E (estimated hepatic extraction ratio) ([4]; 1 μM): 0.46
- Fm,AO Method A (fraction metabolized by AO) ([4]; s9, 1 μM): 0.70
- Fm,AO Method B (fraction metabolized by AO) ([4]; s9, 1 μM): 0.83
- CLHEP (hepatic clearance) [5]: 16.6 ± 4.51 mL/min/kg
- E (estimated hepatic extraction ratio) [5]: 0.18
- CLHEP (hepatic clearance) [6]: 7.40 ± 1.61 mL/min/kg
- E (estimated hepatic extraction ratio) [6]: 0.11
- CLint scaled at 1 μM [7]: 6.59 ± 0.664 mL/min/kg
- CLint scaled at 1 μM ([8]; s9, pH 7.4, CLint +NADPH): 58.7 ± 4.65 mL/min/kg
- CLint scaled at 1 μM ([8]; s9, pH 7.4, CLint +NADPH +Hyd): 15 ± 2.14 mL/min/kg
- CLint scaled at 1 μM ([8]; s9, pH 7.4, CLint −NADPH): 48.7 ± 5.15 mL/min/kg
- CLHEP (hepatic clearance) ([9]; 1 μM): 30.3 ± 1.11 mL/min/kg
- E (estimated hepatic extraction ratio) ([9]; 1 μM): 0.50
- Fm,AO Method A (fraction metabolized by AO) ([9]; s9, 1 μM): 0.74
- Fm,AO Method B (fraction metabolized by AO) ([9]; s9, 1 μM): 0.83
- CLHEP (hepatic clearance) ([10]; 1 μM): 15.0 ± 1.75 mL/min/kg
- E (estimated hepatic extraction ratio) ([10]; 1 μM): 0.34
- Fm,AO Method A (fraction metabolized by AO) ([10]; s9, 1 μM): 1
- Fm,AO Method B (fraction metabolized by AO) ([10]; s9, 1 μM): 1^#
- fold-error of human S9 CLint predicted by SSS [11]: outside of 3-fold-error
- CLint scaled at 1 μM [12]: 15.5 ± 2.48 mL/min/kg
- CLint scaled at 1 μM ([13]; s9, pH 7.4, CLint +NADPH): 35.6 ± 5.1 mL/min/kg
- CLint scaled at 1 μM ([13]; s9, pH 7.4, CLint −NADPH): 33.5 ± 3.84 mL/min/kg
- CLHEP (hepatic clearance) ([14]; 1 μM): 21.4 ± 2.28 mL/min/kg
- E (estimated hepatic extraction ratio) ([14]; 1 μM): 0.49
- Fm,AO Method A (fraction metabolized by AO) ([14]; s9, 1 μM): 1
- Fm,AO Method B (fraction metabolized by AO) ([14]; s9, 1 μM): 0.94
- CLint scaled at 1 μM ([15]; s9, pH 7.4, CLint +NADPH): 19.5 ± 2.05 mL/min/kg
- CLint scaled at 1 μM ([15]; s9, pH 7.4, CLint −NADPH): 21.3 ± 1.52 mL/min/kg
- CLint scaled at 1 μM [16]: 4.68 ± 2.2 mL/min/kg
- CLHEP (hepatic clearance) [17]: 3.79 ± 1.04 mL/min/kg
- E (estimated hepatic extraction ratio) [17]: 0.14
